Assay results from patent US4238500A, “Cyclic double hemiacetals of enediol compounds and compositions and methods for preparing and using same” (National Foundation for Cancer Research, priority 1979, dated 1980).
pIC50: −log10 of the molar value.

How the values were obtained:
[1] = test system: acute myelocytic leukemia; details: 13 patients with acute myelocytic leukemia; all then-current therapy 13%; cited from earlier work
viral disease = details: cited from earlier work
guinea pig ileum = assay: Effects on pain receptors: twitch height of coaxially stimulated guinea pig ileum; details: Cavia porcellus, read-out: ED50 (50% reduction in twitch height)
[2] = test system: capillary permeability produced by serotonin or histamine; assay: Increased capillary permeability by intradermal serotonin or histamine (trypan blue) in rats; format: in vivo; details: 100 mg/kg i.p. 30 minutes before, serotonin 0.05 μg or histamine 1 μg intradermal
Description: In one series of tests, rats were treated i.v. with trypan blue and then the increased capillary permeability produced by intradermal injection of serotonin (0.05 μg) or histamine (1 μg) was measured.
No effect of methylglyoxal-ascorbic acid compound or L-ascorbic acid could be found in this system.

[3] = test system: edema of the rat paw produced by carrageenan; assay: Carrageenan-induced edema of the rat paw
Description: In other experiments, edema of the rat paw was produced by intradermal injection of carrageenan (0.1 ml of 1% solution in saline).

glyoxalase enzyme system = details: converted by glyoxalase to D-lactic acid in presence of reduced glutathione; cited from earlier work
[4] = 199 mg/kg i.p. versus indomethacin 3 mg/kg per os

For `CC(C=NNC(=N)N)=NNC(=N)N` [methylglyoxal bis(guanylhydrazone)], the complete remission frequency [1] is given as 69%.

For `O=CC(=O)C1CCCCC1` [cyclohexylglyoxal], the antiviral activity (viral disease) is given as “have antiviral activity”.

For `O=CC(=O)Cc1ccccc1` [benzylglyoxal], the antiviral activity (viral disease) is given as “have antiviral activity”.

For `O=C1O[C@H]([C@@H](O)CO)C(O)=C1O` [L-ascorbic acid], the pIC50 (guinea pig ileum) was 1.49, the “effect on increased capillary permeability” value [2] was “No effect” and the “anti-inflammatory activity (rat paw edema)” value ([3]; 199 mg/kg i.p. 60 minutes prior to carrageenan) was “somewhat anti-inflammatory”. For the same molecule, the “activity compared with indomethacin” value [3, 4] was “far less active than indomethacin” and the “ratio of effectiveness (indomethacin versus compound)” value [3, 4] was “approximately 200”.

In the case of `CC(=O)C=O` [methylglyoxal], the pIC50 (guinea pig ileum) is given as 2.10 and the lability in vivo (glyoxalase enzyme system) is given as “extremely labile in vivo”.
